Reference: patent US5591715A, “Methods and compositions for reducing multidrug resistance” (priority 1995, dated 1997)
Converted amounts (≈) assume the structure as drawn.

How the values were obtained:
[1] = system: KB 3-1 cells; test: cells; format: cell-based; conditions: Homo sapiens, KB 3-1, 1 h, Table V, read-out: MFI (T/U), treated cells/untreated cells; for fold induction at 100 µg/mL: KB3-1, 100 μg/ml
Source text: ^b Mean Fluorescence Intensity resulting from intracellular rhodamine

[2] = system: KB 8-5-11 cells; test: cells; format: cell-based; conditions: Homo sapiens, 1 h, Table V, read-out: MFI (T/U), treated cells/untreated cells; for fold induction at 100 µg/mL: KB8-5-11, 100 μg/ml
Source text: A series of PEG domains of average MW 600, 900 or 1500 was synthesized.

[3] = system: KB 8-5-11 cells; test: Relative RMA activity: percent KB 8-5-11 (MDR) cells showing rhodamine 123 fluorescence in the range of sensitive KB 3-1 cells; format: cell-based, human; conditions: Table V, none = 0.6
Procedure: Efflux of rhodamine 123 from MDR cells was also examined to provide direct information about the action of the transport protein Mdr 1. Enhanced accumulation of the P-gp substrate, rhodamine 123, in multidrug resistant KB 8-5-11 cells was used to measure RMA activity. Flow cytometric analysis was performed as described (Coon et al., 1991; Buckingham et al. 1995). Briefly, multidrug resistant KB 8-5-11 cells (0.5×10^6 cells/ml) were incubated with […] rhodamine 123 at 37° C. in the presence or absence of the putative RMA. After 60 min., mean intracellular steady state rhodamine 123 fluorescence was measured on an Epics Profile How Cytometer (Coulter, Hialeah, Fla.).
SOLUTOL® HS 15 was fractionated using reverse phase liquid chromatography to determine where the activity resides in the preparation. An approximately 50% solution of SOLUTOL® HS 15 was prepared in 100% acetonitrile (ACN) and water. One ml of the SOLUTOL® HS 15 solution was injected onto a Phenomenex IB-Sil reversed phase column. The column has 5 μm particles, and is 4.6 mm internal diameter by 150 mm. The flow rate was 2.0 ml/min. The mobile phase was as follows: A=5% ACN and B=100% ACN. The gradient was linear with 100% A to 100% B in 15 minutes, then was maintained at 100% B. Fractions were collected at 30 second intervals. The various fractions were assayed for RMA activity as described in Example III. […] 145-149, 1989.
The various fractions obtained from the reverse phase liquid chromatography were analyzed to determine the RMA activity in each fraction. The fractions were then analyzed by infrared spectrophotometry.
^a Percent cells KB85-11 (MDR) showing rhodamine 123 fluorescence in
the range of sensitive cell (KB31) in the same experiment.
CREMOPHOR® EL was fractionated by super critical extraction. Approximately 25 grams of CREMOPHOR® EL was thoroughly mixed with 20 grams of hydromatrix (silicon dioxide) manufactured by Varian--Harbor City, Calif. 40710 and loaded into a stainless steel high pressure extraction cell. The extraction cell was maintained at 40° C. Supercritical carbon dioxide was pumped into the extraction cell at a rate of approximately 3 liters of gaseous carbon dioxide per minute (4 ml of supercritical carbon dioxide per minute). The extractable material was dissolved under the extraction conditions, and separated from the matrix. The supercritical carbon dioxide solution with dissolved component was then depressurized to evaporate the carbon dioxide gas, and to precipitate the solute. […]
^a Percent KB 85-11 (MDR) cells showing rhodamine 123 fluorescence in
The RMA activity of various fatty acids, PEG monoesters and PEG diesters was determined by the method described in Example III. […]

[4] = system: Mdr1 protein; conditions: cited from earlier work
[5] = system: multidrug resistant cells; conditions: cited from earlier work
[6] = in vitro; conditions: human, kb 8-5-11 cells
[7] = In vivo tolerability of RMA; conditions: dosages achieving equivalent or superior reversal of MDR vs verapamil
[8] = in vitro; conditions: human, kb 3-1 cells
[9] = in vitro; conditions: human, kb 8-5 cells
[10] = in vitro; conditions: human, k562/iii cells
Procedure: The chromogenic substrate, MTT (Sigma), was used to enumerate viable cells. […] For the Resistance Modification Index (RMI, Eliason et al., 1990), cells were prepared in microtiter plates and incubated with the indicated drugs and RMA. RMI was calculated as the IC50 of drug alone/IC50 of drug+RMA. The average RMI was calculated from at least three independent assays.
Growth is related as % relative to untreated cells.

## CC/C=C\C/C=C\C/C=C\CCCCCCCC(=O)O [Linolenic Acid]
[1]; KB3-1, 10 μg/ml
  fold induction at 10 µg/mL: 1.2
[1]
  fold induction at 100 µg/mL: 1.7
[2]; KB8-5-11, 10 μg/ml
  fold induction at 10 µg/mL: 0.9
[2]
  fold induction at 100 µg/mL: 1.7
[3]; 10 μg/ml
  Relative RMA Activity: 1.3%
[3]; 100 μg/ml
  Relative RMA Activity: 9.2%

## CCCCCCCCCCCCCCCCCC(=O)O [Stearic Acid]
[1]
  fold induction at 100 µg/mL: 1.9
[2]
  fold induction at 100 µg/mL: 1.4
[3]; 100 μg/ml
  Relative RMA Activity: 2.1%

## COc1cc2c(c(OC)c1OC)-c1ccc(OC)c(=O)cc1[C@@H](NC(C)=O)CC2 [Colchicine, colchicine]
[4]
  competition for vinblastine binding: does not compete for vinblastine binding
  interaction with identified drug-binding site on Mdr1 protein: interact weakly with the identified drug-binding site on the Mdr1 protein

## CCCCCCCC/C=C\CCCCCCCC(=O)O [Oleic Acid]
[1]
  fold induction at 100 µg/mL: 2.1
[2]
  fold induction at 100 µg/mL: 1.7
[3]; 100 μg/ml
  Relative RMA Activity: 2.7%

## [N-]=[N+]=[N-] [azide]
[5]; in vitro
  RMA activity / reversal of multidrug resistance (literature): reverse multidrug resistance in vitro

## COc1ccc(CCN(C)CCCC(C#N)(c2ccc(OC)c(OC)c2)C(C)C)cc1OC (stereo not shown) [Verapamil]
[5]
  effect against VP-16 multidrug resistance (literature): not effective against VP-16 multidrug resistance
[5]; drug resistant cells
  intracellular localization of doxorubicin with added agent (literature): doxorubicin is localized mainly in the nucleus in drug resistant cells
[6]
  CC50 at 72 h: 27 µg/mL (≈ 59.4 µM)
[7]
  in vivo tolerability: marked toxicity
[8]
  CC50 at 72 h: 40 µg/mL (≈ 88 µM)
[9]
  CC50 at 72 h: 10 µg/mL (≈ 22 µM)
[10]
  CC50 at 72 h: 38 µg/mL (≈ 83.6 µM)
